Measurements taken from patent US20140038974A1, “Compositions and Methods for Eye Whitening” (Eye Therapies, LLC, priority 2009, published 2014).
Like-named read-outs stand apart in the source and are kept apart here.

What was measured:
[1] = test system: α-2(a)-(c) adrenergic receptor subtypes; experiment: α-2 receptor subtype preference, α-2(a)-(c) (Table 1); type: binding
[2] = Log P (Table 1); type: physicochemical
[3] = test system: conjunctival hyperemia / whiteness of eye; settings: for subjects reporting reduced hyperemia and increased whiteness in the treated eye: […] brimonidine, one eye, 8 human subjects
Method: (§1) The subjects were administered with the drug in one eye and then asked to assess themselves in the mirror to see if they perceived a difference in conjunctival hyperemia between eyes. The assessments were made 5 minutes after the administration and 4 hours after the administration. After the four hours assessment, the drug was re-administered.

[4] = test system: nasal congestion
Method: as §1

[5] = test system: eye; settings: […] brimonidine
Method: FIG. 13 is a photograph of both eyes of the person before the drug was administered. FIG. 14A is a close-up photograph of the right eye and FIG. 14B is a close-up photograph of the left eye.

[6] = test system: eye; settings: for effectiveness at reducing eye redness: both general eye redness and eye redness induced by drug administration
Description: Redness reduction is on a scale from 0.00 to 4.00 with 0.00 denoting the greatest redness reduction and 4.00 denoting no redness reduction. Whitening is on a scale from 0.00 to 4.00 with 0.00 denoting pearly white, glistening color and 4.00 denoting no whitening effect.

[7] = test system: α-2 over α-1 adrenergic receptors
[8] = with or without redness induced by drug administration

Compound | α-2(a)-(c) [1] | logP [2] | subjects reporting reduced hyperemia and increased whiteness in the treated eye ([3]; 5 min assessment) | subjects reporting reduced hyperemia and increased whiteness in the treated eye ([3]; four hour assessment) | effect on redness and whiteness of eyes ([3]; low dose ([…]) brimonidine, Example 3 conclusion) | subjects reporting reduced nasal congestion in the nostril on the same side as the treated eye ([4]; […] brimonidine, one eye, four hour assessment, 8 human subjects) | effect on nasal congestion ([4]; in several subjects, nostril on the same side as the treated eye, Example 3 conclusion) | cosmetic whitening of an eye ([5]; right eye, person with healthy eyes, left eye untreated) | effect on redness and whiteness of an eye ([5]; child patient) | effect on redness and whiteness of an eye ([5]; patient with glaucoma receiving Lumigan (bimatoprost 0.03%)) | further whitening eyes beyond their usual color ([6]; after redness inducing drug administration) | effectiveness at reducing eye redness [6] | Other (pH dependence of effect) ([6]; in vivo) | further whitening eyes beyond their usual color [6, 8] | Selectivity [7] | Redness Reduction ([6]; in vivo) | Log P [2]
Brc1c(NC2=NCCN2)ccc2nccnc12 [Brimonidine, brimonidine] | general | 1 | eight of eight | eight of eight | significant reduction of redness and increase of whiteness | six of eight | reducing nasal congestion | noticeably cosmetically whitened | significant reduction of redness and increase of whiteness | significant reduction of redness and increase of whiteness | general ineffectiveness | highly effective | >effect lo pH |  |  |  | 
Cc1cccc([C@H](C)c2cnc[nH]2)c1C [Dexmedetomidine, dexmedetomidine] | general | 3 |  |  |  |  |  |  |  |  |  | highly effective |  | generally ineffective | 1660 |  | 
guanfacine | 2(a) high |  |  |  |  |  |  |  |  |  |  | highly effective | >effect hi pH | highly effective |  | 0.00 | 
Oc1ccc2c(c1)C(Cc1c[nH]cn1)CC2 (stereo not shown) [Fadolmidine, fadolmidine] | general |  |  |  |  |  |  |  |  |  |  |  |  |  |  |  | 2.16
